Measured values: publication PMC9687805 (Biomolecules, 2022)
“And” between values parts separate entries of the source, which are not always exact repeats. Equal entries are not always repeated. Where two headings read alike, the source gives them in different places.

How the values were obtained:
Human erythrocyte AChE = biological target: T1, Human erythrocyte AChE (Homo sapiens, UniProt P22303); test: biochemical; settings: for inhibition at 20 µM: read-out: Inhibitory activity against AChE, % inhibition at 20 μM; for IC50: human erythrocyte AChE, 5 min incubation, 25 °C, pH 7.5, read-out: Inhibitory activity against AChE, IC50
T1 construct: purchased Sigma-Aldrich; host or cells: human erythrocytes
Procedure: (§1) The assay solution consisted of 0.1 M K/Na phosphate buffer pH 7.5, 25 °C, 0.33 mM DTNB, 0.02 unit/mL AChE or BChE, and 1 mM substrate (ATCh or BTCh, respectively). Reagent blanks consisted of reaction mixtures without substrates.
(§2) Each experiment was performed in triplicate.

equine serum BChE = biological target: T2, equine serum BChE (Equus caballus, UniProt P81908); test: biochemical; settings: mean ± SEM, n = 3; for IC50: equine serum BChE, 5 min incubation, 25 °C, pH 7.5, read-out: Inhibitory activity against BChE, IC50; for inhibition at 20 µM: read-out: Inhibitory activity against BChE, % inhibition at 20 μM, compound 20 μM, n.a. = not active
T2 construct: purchased Sigma-Aldrich; host or cells: equine serum
Procedure: as §1, §2

[1] = ABTS radical cation scavenging activity assay; set-up: key to ABTS•+-scavenging activity, TEAC: ratio of slopes, tested compound vs Trolox (Trolox = 1); settings: n=3, 1 h, 30 °C; for ABTS•+-scavenging activity, TEAC: Trolox equivalent antioxidant capacity, mean ± SEM; for IC50: concentration for 50% reduction of ABTS radical cation
Procedure: Radical scavenging activity of the compounds was evaluated by the ABTS radical cation (ABTS^•+) scavenging assay showing the ability of the compounds to decolorize the ABTS^•+ solution [86] with some modifications. Trolox was used as the antioxidant standard; ascorbic acid was used as the comparison compound. All tested compounds and standards were dissolved in DMSO.
The solution of ABTS^•+ was produced by mixing 7 mM ABTS aqueous solution with 2.45 mM potassium persulfate aqueous solution in equal quantities and allowing them to react for 12–16 h at room temperature in the dark. Radical scavenging capacity of the compounds was analyzed by mixing 10 µL of compound with 240 µL of ABTS^•+ working solution in ethanol (100 µM final concentration), and after 1 h of incubation at 30 °C the decrease in absorbance was measured spectrophotometrically at 734 nm using a Bio-Rad xMark microplate UV/VIS spectrophotometer (Bio-Rad, Hercules, CA, USA). The compounds were tested in the concentration range 5 × 10^−7–1 × 10^−4 M. Ethanol blanks were run in each assay. Values were obtained from five replicates of each sample and three independent experiments.
Antioxidant activity was reported as Trolox equivalent antioxidant capacity (TEAC values), consisting of the ratio between the slopes obtained from the linear correlation for concentrations of the tested compounds and Trolox with absorbance of ABTS radical. […] The calculations were carried out using Origin 6.1 for Windows (OriginLab, Northampton, MA, USA). Results are presented as mean ± SEM calculated using GraphPad Prism version 6.05 for Windows, GraphPad Software (San Diego, CA, USA).

[2] = Ferric reducing antioxidant power (FRAP) assay; settings: Trolox equivalents; n=3, 1 h, 37 °C; mean ± SEM
Procedure: The FRAP (Ferric Reducing Antioxidant Power) assay measures the ability of antioxidants to reduce the ferric 2,4,6-tripyridyl-s-triazine complex [Fe(TPTZ)2]^3+ to the intensely blue-colored ferrous complex [Fe(TPTZ)2]^2+ with an absorption maximum at λ = 593 nm. The reducing ability of a compound is an indicator of its potential antioxidant activity.
The ferric reducing ability of the compounds was determined by a previously described method as a microplate-adapted version described in [42]. 2,4,6-tris(pyridin-2-yl)-1,3,5-triazine (TPTZ), FeCl3·6H2O, Trolox, ascorbic acid and DMSO were obtained from Sigma-Aldrich Chemical Co (St. Louis, MO, USA). The FRAP reagent was prepared by mixing acetate buffer (0.3 M, pH 3.6), TPTZ (10 mM in 40 mM HCl) and FeCl3·6H2O (20 mM in distilled water) in a ratio of 10:1:1 immediately before use. Compounds were dissolved in DMSO and tested in the concentration range of 1×10^−6–1×10^−4 M. The solvent content in the reaction mixture was 4% (v/v). The test compounds (10 µL) were added to the FRAP reagent solution (240 µL) and mixed thoroughly. The reaction was carried out at 37 °C in the dark, the incubation time was 1 h. The absorbance at 600 nm was monitored spectrophotometrically by a FLUOStar OPTIMA microplate reader (BMG Labtech, Germany) at 37 °C. Trolox was used as a standard antioxidant, ascorbic acid as a reference compound. Values were obtained from four replicates of each sample and three independent experiments.
The ferric reducing ability of compounds was expressed as TE units (antioxidant activity in Trolox equivalent) with the values calculated as the ratio of the concentrations of Trolox and the test compound resulting in the same effect.

EeAChE PAS = biological target: T3, EeAChE PAS (Electrophorus electricus, UniProt O42275); test: biochemical; assay type: binding; settings: 0.25 h; compound 20 μM, EeAChE 7 μM, propidium iodide 8 μM; n.a. = not active; read-out: % Displacement of Propidium from the EeAChE PAS at 20 μM
T3 construct: purchased Sigma-Aldrich type VI-S; host or cells: electric eel
Procedure: Electrophorus electricus (EeAChE) (electric eel, type VI-S, lyophilized powder, Sigma-Aldrich, St. Louis, MO, USA) was used owing to its high degree of purification, high activity, and lower cost than human AChE (hAChE). […] To determine the degree of displacement (% displacement) of propidium from the PAS of AChE, EeAChE (final concentration, 7 μM) was incubated with the test compound at a concentration of 20 μM in 1 mM Tris-HCl buffer pH 8.0, 25 °C, for 15 min. Then, propidium iodide solution (final concentration, 8 μM) was added, the samples were incubated for 15 min, and the fluorescence spectrum (530 nm (excitation) and 600 nm (emission)) was taken. […] The blank contained propidium iodide of the same concentration in 1 mM Tris-HCl buffer, pH 8.0 at 25 °C. The measurements were carried out in triplicate on a FLUOStar Optima microplate reader (LabTech, Ortenberg, Germany), and the results were calculated by the following formula:% Displacement = 100 − (IFAChE + Propidium + inhibitor / IFAChE + Propidium) × 100 (1) where IFAChE + Propidium is the fluorescence intensity of the propidium associated with AChE in the absence of the test compound (taken as 100%), and IFAChE + Propidium + inhibitor is the fluorescence intensity of the propidium associated with AChE in the presence of the test compound.

[3] = Metal-chelating properties by UV-Vis spectrometry in acetonitrile; assay type: physicochemical; settings: compound 40 µM, metal 40 µM, 25 °C, red shift of absorbance
Procedure: The complexing studies were made in acetonitrile at 25 °C using a UV–vis spectrophotometer Shimadzu UV-2600 (Shimadzu Corporation, Kyoto, Japan) with wavelength ranging from 190 to 600 nm. Solutions (200 µM in acetonitrile) of the following metals compounds were prepared in volumetric flasks: FeCl2·4H2O (99%, Acros Organics by Thermo Fisher Scientific (Kandel, Germany)), CuCl2 (98%, Alfa Aesar by Thermo Fisher Scientific (Kandel, Germany)), or Zn(NO3)2·6H2O (98%, Alfa Aesar by Thermo Fisher Scientific (Kandel, Germany). Solutions of the test compounds were also prepared in acetonitrile at 400 µM concentrations. To a mixture of 0.5 mL test compound solution (40 μM final concentration) and 3.5 mL acetonitrile, 1 mL of the metal solution (CuCl2, FeCl2·4H2O, or Zn(NO3)2·6H2O; 40 µM final concentration) was added. The solution was incubated at 25 °C for 30 min and then the absorption spectra were recorded at 25 °C in a 1 cm quartz cell. The control was prepared by mixing 0.5 mL tested compound solution and 4.5 mL acetonitrile.

porcine liver CES = test: CES inhibition, 4-nitrophenyl acetate hydrolysis; settings: compound 20 μM; mean ± SEM, n = 3; n.a. = not active
Procedure: Final enzyme and substrate (4-nitrophenyl acetate) concentrations were 0.02 unit/mL and 1 mM, respectively. Assays were carried out with a blank containing all constituents except porcine CES to assess non-enzymatic hydrolysis. Measurements were performed with a FLUOStar Optima microplate reader (BMG Labtech, Ortenberg, Germany). Compounds were dissolved in DMSO; the incubation mixture contained 2% (v/v) solvent. The primary evaluation of the inhibitory activity of the compounds was performed by determining the degree of the enzyme inhibition at a compound concentration of 20 µM. For this, a sample of the corresponding enzyme was incubated with the test compound for 5 min; then the enzyme residual activity was determined. Each experiment was performed in triplicate. […] Substrate was then added and residual enzyme activity relative to an inhibitor-free control was measured using a FLUOStar Optima microplate reader.

[4] = compound 20 μM, mean ± SEM, n = 3, n.a. = not active

T1 sequence (P22303 32-617 isoform P22303-2 limits assumed): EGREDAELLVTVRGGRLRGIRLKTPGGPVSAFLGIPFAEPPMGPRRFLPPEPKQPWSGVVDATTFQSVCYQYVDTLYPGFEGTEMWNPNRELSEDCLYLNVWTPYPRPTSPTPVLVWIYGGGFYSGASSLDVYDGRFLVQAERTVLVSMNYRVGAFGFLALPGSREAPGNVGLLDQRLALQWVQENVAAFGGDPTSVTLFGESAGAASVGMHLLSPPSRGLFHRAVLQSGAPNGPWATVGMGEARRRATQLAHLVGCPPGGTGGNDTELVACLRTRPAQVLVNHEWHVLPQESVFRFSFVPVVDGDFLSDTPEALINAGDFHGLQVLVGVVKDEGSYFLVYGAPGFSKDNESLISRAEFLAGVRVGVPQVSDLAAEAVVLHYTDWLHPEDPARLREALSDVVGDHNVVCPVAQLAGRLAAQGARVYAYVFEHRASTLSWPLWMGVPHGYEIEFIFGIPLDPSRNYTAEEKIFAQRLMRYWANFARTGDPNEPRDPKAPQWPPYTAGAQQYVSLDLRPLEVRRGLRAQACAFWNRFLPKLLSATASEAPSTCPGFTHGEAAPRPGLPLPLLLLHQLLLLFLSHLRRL
T3 sequence (O42275 24-633): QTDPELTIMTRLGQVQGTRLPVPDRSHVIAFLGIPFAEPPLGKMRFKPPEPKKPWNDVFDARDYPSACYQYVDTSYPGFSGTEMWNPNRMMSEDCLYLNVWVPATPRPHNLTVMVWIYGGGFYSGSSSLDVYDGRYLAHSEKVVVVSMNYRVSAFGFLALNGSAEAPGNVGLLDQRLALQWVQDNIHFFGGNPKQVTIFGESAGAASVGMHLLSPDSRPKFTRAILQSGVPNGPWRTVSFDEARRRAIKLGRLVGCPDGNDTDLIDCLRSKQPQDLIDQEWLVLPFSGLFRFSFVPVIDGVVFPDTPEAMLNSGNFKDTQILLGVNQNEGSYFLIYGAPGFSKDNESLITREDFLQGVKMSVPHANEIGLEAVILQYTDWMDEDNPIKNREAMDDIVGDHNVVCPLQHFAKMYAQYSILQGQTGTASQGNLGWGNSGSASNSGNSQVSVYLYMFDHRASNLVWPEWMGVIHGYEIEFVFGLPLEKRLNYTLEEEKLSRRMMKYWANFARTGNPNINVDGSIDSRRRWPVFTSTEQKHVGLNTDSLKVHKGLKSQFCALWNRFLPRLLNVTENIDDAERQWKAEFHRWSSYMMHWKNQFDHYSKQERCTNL
T2 sequence (P81908 whole entry): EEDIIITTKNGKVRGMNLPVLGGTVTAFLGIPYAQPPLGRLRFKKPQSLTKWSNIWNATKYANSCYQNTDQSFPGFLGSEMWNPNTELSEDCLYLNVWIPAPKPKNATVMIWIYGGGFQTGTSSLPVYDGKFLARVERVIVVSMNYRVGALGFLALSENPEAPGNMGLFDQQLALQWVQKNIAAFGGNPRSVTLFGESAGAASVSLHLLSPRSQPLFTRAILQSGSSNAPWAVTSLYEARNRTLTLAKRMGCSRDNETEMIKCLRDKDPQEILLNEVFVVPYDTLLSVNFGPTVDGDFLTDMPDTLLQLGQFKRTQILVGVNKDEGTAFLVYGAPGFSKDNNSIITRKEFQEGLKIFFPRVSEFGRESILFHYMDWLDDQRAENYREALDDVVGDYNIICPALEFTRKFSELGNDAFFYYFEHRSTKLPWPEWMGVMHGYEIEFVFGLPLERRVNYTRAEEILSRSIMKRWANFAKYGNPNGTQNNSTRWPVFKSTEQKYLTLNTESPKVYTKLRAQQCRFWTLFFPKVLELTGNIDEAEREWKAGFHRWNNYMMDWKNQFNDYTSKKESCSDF

Row | Structure (SMILES) | inhibition at 20 µM (Human erythrocyte AChE) [%] | IC50 (equine serum BChE) | ABTS•+-scavenging activity, TEAC [1] | IC50 [1] [nM] | FRAP (Fe3+-reducing activity), TE [2] | inhibition at 20 µM (Human erythrocyte AChE; [4]) [%] | inhibition at 20 µM (equine serum BChE) [%] | IC50 (Human erythrocyte AChE; mean ± SEM, n = 3) | inhibition at 20 µM (EeAChE PAS) [%] | Metal-chelating ability for Cu2+, Fe2+ and Zn2+ [3] | Inhibitory activity against CES, % inhibition at 20 μM (porcine liver CES) [%]
1 | CCCCCCN/C(C)=C(\N=N\c1ccc(C)cc1)C(C)=O [2a, (3Z)-4-(Hexylamino)-3-[(E)-(4-methylphenyl)diazenyl]pent-3-en-2-one] | 22.9 ± 1.2 | 18100 ± 800 nM | 0.94 ± 0.03 | 20300 ± 1600 | 0.57 ± 0.02 |  |  |  |  |  | 
2 | CCCCCCN/C(C)=C(\N=Nc1ccc(C)cc1)C(=O)c1ccccc1 [2b, (3Z)-3-(Hexylamino)-2-[(4-methylphenyl)diazenyl]-1-phenylbut-2-en-1-one] |  |  | 0.98 ± 0.03 | 18900 ± 1200 | 0.52 ± 0.02 | 12.5 ± 0.6 | 25 ± 2 |  |  |  | 
3 | CCCCCCN/C(C)=C(\N=N\c1ccc(C)cc1)C(=O)C(F)(F)F [2c, (3Z)-4-(Hexylamino)-3-[(E)-(4-methylphenyl)diazenyl]-1,1,1-trifluoropent-3-en-2-one] |  |  | 1.00 ± 0.04 | 19900 ± 1400 | not active | 14.7 ± 3.2 | 35.3 ± 2.7 |  |  |  | 
4 | CC(=O)C(/N=N/c1ccc(C)cc1)=C(\C)NCCCCNc1c2c(nc3ccccc13)CCCC2 [6a] |  | 139 ± 17 nM | 1.00 ± 0.03 | 19500 ± 1100 | 0.37 ± 0.06 |  |  | 1390 ± 40 nM | 15.6 ± 1.2 | metal-chelating ability | 23.3 ± 0.4
5 | CC(=O)C(/N=N/c1ccc(C)cc1)=C(\C)NCCCCCCCCNc1c2c(nc3ccccc13)CCCC2 [6c] |  | 54 nM and 54.3 nM | 0.80 ± 0.03 | 27500 ± 1600 | 0.49 ± 0.05 |  |  | 270 nM and 272 nM | 17.8 ± 1.4 |  | 30.1 ± 1.2
6 | C/C(NCCCCNc1c2c(nc3ccccc13)CCCC2)=C(/N=N/c1ccc(C)cc1)C(=O)c1ccccc1 [7a] |  | 36 nM and 35.9 nM | 0.90 ± 0.04 | 22300 ± 1900 | 0.43 ± 0.04 |  |  | 889 ± 7 nM | 11.9 ± 0.8 | metal-chelating ability | 31.2 ± 2.9
7 | C/C(NCCCCCCNc1c2c(nc3ccccc13)CCCC2)=C(/N=N/c1ccc(C)cc1)C(=O)c1ccccc1 [7b] |  | 47 ± 3.8 nM | 0.91 ± 0.03 | 21800 ± 1600 | 0.51 ± 0.06 |  |  | 380 ± 3 nM | 15.5 ± 1.3 |  | 33.2 ± 1.7
8 | C/C(NCCCCCCCCNc1c2c(nc3ccccc13)CCCC2)=C(/N=N/c1ccc(C)cc1)C(=O)c1ccccc1 [7c] |  | 74.5 ± 6 nM | 0.92 ± 0.03 | 21800 ± 1600 | 0.58 ± 0.03 |  |  | 250 nM and 249 nM | 14.1 ± 1.1 |  | 23.4 ± 2.2
9 | C/C(NCCCCNc1c2c(nc3ccccc13)CCCC2)=C(/N=N/c1ccc(C)cc1)C(=O)C(F)(F)F [8a] |  | 246 ± 16 nM | 1.13 ± 0.05 | 17700 ± 1300 | 0.06 ± 0.01 |  |  | 1690 ± 50 nM | 13.7 ± 1.2 | metal-chelating ability | 28.6 ± 4.0
10 | C/C(NCCCCCCNc1c2c(nc3ccccc13)CCCC2)=C(/N=N/c1ccc(C)cc1)C(=O)C(F)(F)F [8b] |  | 125 ± 6 nM | 1.00 ± 0.04 | 17900 ± 600 | 0.11 ± 0.03 |  |  | 280 nM and 276 nM | 14.4 ± 1.3 |  | 19.9 ± 2.9
11 | C/C(NCCCCCCCCNc1c2c(nc3ccccc13)CCCC2)=C(/N=N/c1ccc(C)cc1)C(=O)C(F)(F)F [8c] |  | 98.5 ± 1.3 nM | 0.95 ± 0.03 | 19400 ± 1300 | 0.12 ± 0.01 |  |  | 240 nM and 241 nM | 16.2 ± 1.4 |  | 12.2 ± 1.7
12 | O=C1O[C@H]([C@@H](O)CO)C(O)=C1O [Ascorbic acid, ascorbic acid, reference compound] |  |  | 0.96 ± 0.02 | 22600 ± 1300 | 1.23 ± 0.11 |  |  |  |  |  | 
13 | Cc1c(C)c2c(c(C)c1O)CCC(C)(C(=O)O)O2 (centres unmarked) [Trolox, 6-hydroxy-2,5,7,8-tetramethylchroman-2-carboxylic acid, reference compound] |  |  | 1.0 | 19700 ± 800 | 1.0 |  |  |  |  |  | 
